The test system of data set [1] is MDA-MB-468. Put plainly: Antiproliferative activity against human MDA-MB-468 cells assessed as inhibition of cell growth measured after 48 hrs by SRB method. The class given is functional, cell-based. The settings on record: MDA-MB-468, 48 h. On the technique in general: Sulforhodamine B stains cellular protein and so reports cell mass.
In a further data set the test system is Cell membrane. The data set is described as follows: Induction of mitochondrial membrane potential loss in human MDA-MB-231 cells assessed as reduction in fluorescence measured after 48 hrs by rhodamine-123 dye based fluorescence assay. The note with it: dose 4-16 µM.
The subject of data set [2] is MCF7. Put plainly: Antiproliferative activity against human MCF7 cells assessed as inhibition of cell growth measured after 48 hrs by SRB method. The class given is functional, cell-based. The note with it: MCF7, 48 h.
Data set [3] relates to MDA-MB-468. Put plainly: Antiproliferative activity against human MDA-MB-468 cells assessed as inhibition of cell growth at 20 uM by SRB method relative to control. In kind it is functional. Set-up: scale not given: the % may be the effect or the level left.
The test system of data set [4] is HCT-116. The data set is described as follows: Antiproliferative activity against human HCT-116 cells assessed as inhibition of cell growth at 20 uM by SRB method relative to control. In kind it is functional. Set-up: scale not given: the % may be the effect or the level left.
For data set [5], the system named is MDA-MB-231. Put plainly: Antiproliferative activity against human MDA-MB-231 cells assessed as inhibition of cell growth measured after 48 hrs by SRB method. In kind it is functional, cell-based. The settings on record: MDA-MB-231, 48 h.
In data set [6] the test system is MDA-MB-231. Put plainly: Induction of apoptosis in human MDA-MB-231 cells assessed as chromatin condensation at 4 to 16 uM measured after 48 hrs by DAPI staining based fluorescent microscopic analysis. In kind it is functional, cell-based. The note with it: dose 4-16 µM.
Data set [7] deals with MDA-MB-231. The data set is described as follows: Induction of apoptosis in human MDA-MB-231 cells assessed as increase in caspase-3 expression by Western blot analysis. In kind it is functional, cell-based. (In general: In western blotting, separated proteins are transferred to a membrane and probed.)
The test system of data set [8] is MDA-MB-231. Put plainly: Induction of apoptosis in human MDA-MB-231 cells assessed as effect on bax/bcl-2 ratio by Western blot analysis. In kind it is functional, cell-based.
The subject of data set [9] is HCT-116. The data set is described as follows: Antiproliferative activity against human HCT-116 cells assessed as inhibition of cell growth measured after 48 hrs by SRB method. In kind it is functional, cell-based. The settings on record: HCT-116, 48 h.
In data set [10] the test system is MDA-MB-231. The data set is described as follows: Induction of ROS generation in human MDA-MB-231 cells measured after 48 hrs by DCFDA staining based fluorescent microscopic analysis. The settings on record: dose 4-16 µM. The class given is functional, cell-based.
The nature of data set [11]: Selectivity index, ratio of IC50 for HEK293 cells to IC50 for human MDA-MB-231 cells. The class given is toxicity. The note with it: HEK293 cells versus MDA-MB-231 cells, read-out: Ratio IC50.
In data set [12] the test system is A549. Put plainly: Antiproliferative activity against human A549 cells assessed as inhibition of cell growth measured after 48 hrs by SRB method. The note with it: A549, 48 h. The class given is functional, cell-based.
The nature of data set [13]: Selectivity index, ratio of IC50 for HEK293 cells to IC50 for human MDA-MB-468 cells. The class given is toxicity. The settings on record: HEK293 cells versus MDA-MB-468 cells, read-out: Ratio IC50.
A short description of data set [14]: Antiproliferative activity against HEK293 cells assessed as inhibition of cell growth measured after 48 hrs by SRB method. In kind it is toxicity, cell-based. The note with it: human.
The test system of data set [15] is MDA-MB-231. Put plainly: Induction of apoptosis in human MDA-MB-231 cells assessed as reduction in Bcl-2 expression by Western blot analysis. In kind it is functional, cell-based.
For data set [16], the system named is A549. Put plainly: Antiproliferative activity against human A549 cells assessed as inhibition of cell growth at 20 uM by SRB method relative to control. The arrangement: scale not given: the % may be the effect or the level left. In kind it is functional.
In data set [17] the test system is MDA-MB-231. The data set is described as follows: Inhibition of colony formation in human MDA-MB-231 cells assessed as reduction in colony size at 4 to 16 uM incubated for 24 hrs. In kind it is functional, cell-based. The settings on record: dose 4-16 µM.
Data set [18] deals with MDA-MB-231. Put plainly: Inhibition of colony formation in human MDA-MB-231 cells assessed as reduction in number of colonies at 4 to 16 uM incubated for 24 hrs. The settings on record: dose 4-16 µM. The class given is functional, cell-based.
The test system of data set [19] is MDA-MB-231. The data set is described as follows: Antiproliferative activity against human MDA-MB-231 cells assessed as inhibition of cell growth at 20 uM by SRB method relative to control. The class given is functional. The arrangement: scale not given: the % may be the effect or the level left.
In data set [20] the test system is MCF7. The data set is described as follows: Antiproliferative activity against human MCF7 cells assessed as inhibition of cell growth at 20 uM by SRB method relative to control. The class given is functional. The arrangement: scale not given: the % may be the effect or the level left.
The subject of data set [21] is MDA-MB-231. The data set is described as follows: Induction of apoptosis in human MDA-MB-231 cells assessed as cell blebbing at 4 to 16 uM measured after 48 hrs by DAPI staining based fluorescent microscopic analysis. The class given is functional. The note with it: dose 4-16 µM.
Data set [22] relates to MDA-MB-231. Put plainly: Inhibition of colony formation in human MDA-MB-231 cells incubated for 24 hrs. The class given is functional, cell-based. The note with it: dose 4-16 µM.
Data set [23] deals with MDA-MB-231. Put plainly: Induction of apoptosis in human MDA-MB-231 cells assessed as upregulation of bax expression by Western blot analysis. The class given is functional, cell-based.
A short description of data set [24]: Selectivity index, ratio of IC50 for HEK293 cells to IC50 for human MCF7 cells. The class given is toxicity. The note with it: HEK293 cells versus MCF7 cells, read-out: Ratio IC50.
The subject of data set [25] is MDA-MB-231. The data set is described as follows: Antiproliferative activity against human MDA-MB-231 cells. The class given is functional, cell-based.

Active and inactive are the calls of the source. The calls are words filed in the database; no cut-off is given here.

On to `COc1ccc(/C=C/C(=O)c2ccc(OCC(=O)N3CCCC3)cc2)cc1`, for which the IC50 in the data set on MDA-MB-468 [1] turned out to be 10.1 µM; in the data set with MCF7 [2], 16.2 µM; with MDA-MB-231 [5] it was 9.42 µM; with HCT-116 [9] it was 18.3 µM; in the data set with A549 [12] it was 17.1 µM. Moreover, the Activity result is “Dose-Dependent Effect” in the data set with Cell membrane; around 60% with MDA-MB-468 [3]; around 60% in the data set on HCT-116 [4]; “Dose-Dependent Effect” with MDA-MB-231 [10]; around 60% in the data set on A549 [16]; around 60% with MDA-MB-231 [19]. Besides, the Activity with MCF7 [20] is around 60%. Besides, the result with MDA-MB-231 [6], in the data set on MDA-MB-231 [7], with MDA-MB-231 [8], with MDA-MB-231 [15], in the data set on MDA-MB-231 [21] and with MDA-MB-231 [23] was Active. Besides, the selectivity ratio was found to be 4.14 in data set [11], 3.85 in [13] and 2.41 in data set [24]. Moreover, the IC50 at 48 h in data set [14] was 39.1 µM. The inhibition entry in the data set with MDA-MB-231 [17] and with MDA-MB-231 [18] was “Active” in each case. In addition, the inhibition entry in the data set on MDA-MB-231 [22] was “Dose-Dependent Effect”.

For the compound `COc1ccc(/C=C/C(=O)c2ccc(OCC(=O)NCCc3ccccc3)cc2)cc1`, in data set [14], the IC50 at 48 h stood at 23.4 µM.

Take `COc1ccc(/C=C/C(=O)c2ccc(OCC(=O)N3CCCCC3)cc2)cc1`: the IC50 in the data set with MCF7 [2] was 22.7 µM; in the data set with HCT-116 [9], 17.4 µM. For the same compound, in data set [14], the IC50 at 48 h was 10.8 µM.

With `COc1ccc(/C=C/C(=O)c2ccc(OCC(=O)NCc3cc(OC)c(OC)c(OC)c3)cc2)cc1`, the 50% inhibitory concentration (IC50) in the data set with HCT-116 [9] was found to be 10.5 µM. For the same compound, in data set [14], the IC50 at 48 h worked out at 15.2 µM.

`COc1ccc(/C=C/C(=O)c2ccc(OCC(=O)N3CCSCC3)cc2)cc1`: the figures for the IC50 in the data set with HCT-116 [9] and in the data set with A549 [12] were 15.2 µM and 45.4 µM, respectively.

With `COc1ccc(/C=C/C(=O)c2ccc(OCC(=O)NC3CCCCC3)cc2)cc1`, the IC50 in the data set on HCT-116 [9] is 18.9 µM.

The compound `COc1cccc(C(=O)/C=C/c2ccc(N(CCCl)CCCl)cc2)c1` gave an IC50 in the data set with MDA-MB-231 [25] of 3940 µM.

Consider `COc1ccc(/C=C/C(=O)c2ccc(OCC(=O)Nc3ncccc3Cl)cc2)cc1`, for which the results for the IC50 in the data set on MDA-MB-468 [1], with MDA-MB-231 [5] and in the data set on A549 [12] were 25.2 µM, 24.1 µM and 35.4 µM, respectively.

Broadly, the IC50 is the point on the concentration scale where inhibition reaches its midpoint.

These data come from ChEMBL document CHEMBL5576055, “Design, synthesis, and biological evaluation of chalcone acetamide derivatives against triple negative breast cancer” (Bioorg Med Chem Lett, 2024).
